# Assay results reported in patent publication US7906156B2, “CB2 receptors blocks accumulation of human hepatic myofibroblasts: a novel antifibrogenic pathway in the liver” (priority 2003, dated 2011).
# Structures can show the parent of a compound that is named as a salt. Residues, ends and D or L forms follow the SMILES beside them. *: point of attachment. Cbz = O=C(OCc1ccccc1)*; CH2F = FC*
# What was measured:
# CB2 receptors [1] = target: T1, CB2 receptors (Homo sapiens, UniProt P34972); test: [35S]GTPγS binding assay, membranes of CHO cells overexpressing CB2 receptors
# COX = COX activity (PGE2 released after arachidonic acid); conditions: 1000 nM THC, 8 h
# reactive oxygen species = test: Intracellular reactive oxygen species (DCFH-DA fluorescence); assay type: cell-based, human
# cAMP = cAMP levels in human hepatic myofibroblasts; assay type: cell-based; conditions: not shown
# COX-2 = COX-2 protein induction (Western blot); conditions: 8 h
# [2] = tested on: human hepatic myofibroblasts; test: Cell viability (MTS assay) / cytotoxicity of serum-deprived hepatic myofibroblasts; assay type: cell-based; conditions: for IC50: 16 hours, MTS assay, read-out: half maximal decrease in cell viability
# Experimental: Cell viability. […] CellTiter 96 AQueous One Solution reagent was added to each well and absorbance was recorded at 490 nm.
# CB2 receptors [3] = target: T1, CB2 receptors; test: [35S]GTPγS binding assay, membranes of human hepatic myofibroblasts
# [4] = tested on: human hepatic myofibroblasts; test: DNA laddering and DAPI nuclear morphology; assay type: cell-based
# Experimental: (A) Phase-contrast analysis (Magnification ×100). […] (C) Caspase-3-like activity.
# Apoptosis assays. […] Nuclear morphology was assayed using DAPI staining.
# [5] = tested on: human hepatic myofibroblasts; test: cells; assay type: cell-based; conditions: for IC50 / maximal reduction of PDGF-BB-stimulated DNA synthesis / effect on DNA synthesis / growth: 20 ng/ml PDGF-BB; for IC50: 30 hrs, read-out: half maximal inhibition (IC50) of DNA synthesis; for maximal reduction of PDGF-BB-stimulated DNA synthesis: at 500 nM; for effect on the antiproliferative effect of THC: pretreatment before THC + PDGF-BB
# caspase-3 = test: Caspase-3-like activity on cell lysates; conditions: for effect on caspase-3 activation elicited by THC: pretreatment before THC
# CB2 receptors [6] = target: T1, CB2 receptors; test: forskolin-stimulated cAMP levels in CHO overexpressing CB2 receptors; assay type: cell-based; design: host or cells: CHO cells; conditions: CHO overexpressing CB2, 100 nM, 10 min
# CB1 receptors = target: T2, CB1 receptors (Homo sapiens, UniProt P21554); assay type: cell-based
# T2 construct: host or cells: CHO cells
# T2 sequence (P21554 whole entry): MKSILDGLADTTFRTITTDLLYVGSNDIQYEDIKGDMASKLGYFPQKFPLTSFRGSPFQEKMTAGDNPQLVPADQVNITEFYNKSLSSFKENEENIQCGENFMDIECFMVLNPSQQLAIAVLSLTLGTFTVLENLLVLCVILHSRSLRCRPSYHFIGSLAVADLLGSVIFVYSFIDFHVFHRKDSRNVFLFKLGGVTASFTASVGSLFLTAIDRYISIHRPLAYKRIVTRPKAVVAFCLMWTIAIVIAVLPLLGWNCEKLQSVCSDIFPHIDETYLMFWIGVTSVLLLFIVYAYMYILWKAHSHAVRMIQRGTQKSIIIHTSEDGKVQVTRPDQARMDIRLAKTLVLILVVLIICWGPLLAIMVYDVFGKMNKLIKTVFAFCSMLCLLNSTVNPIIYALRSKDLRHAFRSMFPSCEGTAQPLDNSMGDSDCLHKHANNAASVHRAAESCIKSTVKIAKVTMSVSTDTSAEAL
# T1 sequence (P34972 whole entry): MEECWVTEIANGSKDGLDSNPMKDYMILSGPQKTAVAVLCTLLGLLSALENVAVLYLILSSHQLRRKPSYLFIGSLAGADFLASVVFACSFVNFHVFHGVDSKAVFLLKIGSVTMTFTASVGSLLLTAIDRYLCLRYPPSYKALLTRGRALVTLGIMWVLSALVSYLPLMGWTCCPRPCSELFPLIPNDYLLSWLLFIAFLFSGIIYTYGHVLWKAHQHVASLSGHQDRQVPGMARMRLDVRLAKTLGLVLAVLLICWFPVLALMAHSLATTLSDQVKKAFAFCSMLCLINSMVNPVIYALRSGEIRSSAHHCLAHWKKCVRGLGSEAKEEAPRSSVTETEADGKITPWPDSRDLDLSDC
molecule,measurement,setting,value
"[2H]C([2H])([2H])CCCCc1cc(O)c2c(c1)OC(C)(C)C1CCC(C)=CC21 (stereo not drawn) [THC, 6a,7,8,10a-Tetrahydro-6,6,9-trimethyl-3-(pentyl-5,5,5-d3)-6H-dibenzo(b,d)pyran-1-ol]",concentration giving maximal activation of [35S]GTPγS binding,CB2 receptors [1],10 nM
same,COX activity,COX,stimulates COX activity
same,time to ROS production after exposure,reactive oxygen species,≤ 20 min
same,increase in production of intracellular reactive oxygen species,reactive oxygen species; 3 μM THC,1.5 fold
same,cAMP levels in response to compound,cAMP,not raised
same,induction of COX-2,COX-2,strong induction
same,IC50,"[2]; Homo sapiens, serum-deprived cells",1500 nM
same,concentration giving maximal decrease in cell survival,[2]; serum-deprived cells,2 µM
same,cytotoxic / apoptotic effect on hepatic myofibroblasts,[2]; serum-deprived cells,cytotoxic effects
same,concentration giving maximal effect on [35S]GTPγS binding,CB2 receptors [3],100 nM
same,DNA laddering on agarose gel electrophoresis,[4]; 4 μM THC,dramatic DNA laddering
same,nuclear morphology (DAPI staining),[4]; 4 μM THC,condensed nuclei
same,IC50,[5]; Homo sapiens,200 nM
same,maximal reduction of PDGF-BB-stimulated DNA synthesis,[5],50%
same,time of peak caspase-3 activity,caspase-3,4 to 6 h
same,maximal increase of caspase-3 activity,"caspase-3; 4 μM THC, 5 hr (FIG. 6C)",6.3±2 fold
same,maximal increase in caspase-3 activity,"caspase-3; time course, peak after 4-6 hr",6.7 fold
"CCCn1c(C)c(C(=O)c2cccc3ccccc23)c2ccccc21 [JWH-015, (2-Methyl-1-propyl-1H-indol-3-yl)-1-naphthalenylmethanone]",cytotoxic / apoptotic effect on hepatic myofibroblasts,[2]; serum-deprived cells,apoptotic
same,IC50,[2]; serum-deprived cells,1000 nM
same,cytotoxic / apoptotic effect on hepatic myofibroblasts,"[2]; serum-deprived cells, listed as JW-015",reproduced
same,effect on DNA synthesis / growth,[5],reproduced
same,IC50,[5],150 nM
same,maximal reduction of PDGF-BB-stimulated DNA synthesis,[5],60%
"CCCCC/C=C\C/C=C\C/C=C\C/C=C\CCCC(=O)NCCCl [ACEA, N-(2-Chloroethyl)-5Z,8Z,11Z,14Z-eicosatetraenamide]",cytotoxic / apoptotic effect on hepatic myofibroblasts,[2]; serum-deprived cells,not cytotoxic
same,effect on forskolin-stimulated cAMP levels,CB2 receptors [6],had no effect
same,effect on DNA synthesis / growth,[5],had no effect
same,effect on forskolin-stimulated cAMP levels,CB1 receptors,reduced
"COC(=O)CC(NC(=O)C(C)NC(=O)C(NC(=O)OCc1ccccc1)C(C)C)C(=O)CF (stereo not drawn) [ZVAD-fmk, Z-val-Ala-Asp (OCH3)-Fluoromethyl ketone] (Cbz-Val-Ala-Asp(OMe)-CH2F; configuration not given here)",effect on THC-induced DNA laddering,[4]; 50 μM ZVAD,blocked
same,effect on caspase-3 activation elicited by THC,caspase-3,totally blunted
"CCCCCCC(C)(C)c1ccc([C@@H]2C[C@H](O)CC[C@H]2CCCO)c(O)c1 [CP 55940, (−)-cis-3-[2-Hydroxy-4-(1,1-dimethylheptyl)phenyl]-trans-4-(3-hydroxypropyl)cyclohexanol]",cytotoxic / apoptotic effect on hepatic myofibroblasts,[2]; serum-deprived cells,cytotoxic
C=C(C)[C@@H]1CCC(C)=C[C@H]1c1c(O)cc(CCCCC)cc1O [cannabidiol],cytotoxic / apoptotic effect on hepatic myofibroblasts,[2]; serum-deprived cells,reproduced
same,effect on DNA synthesis / growth,[5],reproduced
"CCCCCCC(C)(C)c1cc(O)c2c(c1)OC(C)(C)[C@@H]1CC=C(CO)C[C@@H]21 [HU-210, (6aR)-trans-3-(1,1-Dimethylheptyl)-6a,7,10,10a-tetrahydro-1-hydroxy-6,6-dimethyl-6H-dibenzo[b,d]pyran-9-methanol]",cytotoxic / apoptotic effect on hepatic myofibroblasts,[2]; serum-deprived cells,cytotoxic
"N-[1S)-endo-1,3,3,-trimethyl bicyclo[2.2.1]heptan-2-yl]-5-(choloro-3-methylphenyl)-1-(4-methyl-benzyl)-pyrazole-3-carboxamide [SR 144528]",effect on apoptosis elicited by HU-210,[2],prevented
same,effect of compound alone on cell viability,[2]; without THC,had no effect
same,effect on the antiproliferative effect of THC,[5],strongly reduced
same,effect on caspase-3 activation elicited by THC,caspase-3,no activation of caspase-3
same,effect of compound alone on caspase-3-like activity,caspase-3; without THC,had no effect
"CCCCC/C=C\C/C=C\C/C=C\C/C=C\CCCC(=O)NCCO [anandamide, N-(2-Hydroxyethyl)-5Z,8Z,11Z,14Z-eicosatetraenamide]",cytotoxic / apoptotic effect on hepatic myofibroblasts,[2]; serum-deprived cells,cytotoxic
CC(C)Cc1ccc(C(C)C(=O)O)cc1 (stereo not drawn) [ibuprofen],effect on the antiproliferative effect of THC,[5],blunted
same,effect on caspase-3 activation elicited by THC,caspase-3,did not affect
"Cc1c(C(=O)NN2CCCCC2)nn(-c2ccc(Cl)cc2Cl)c1-c1ccc(Cl)cc1 [SR 141716, N-pipéridino-5-(4-chlorophényl)-1-(2,4-dichlorophényl)-4-méthylpyrazole-3-carboxamide]",effect on apoptosis elicited by HU-210,[2],had no effect
"Cc1c(C(=O)c2cccc3ccccc23)c2cccc3c2n1[C@H](CN1CCOCC1)CO3 [WIN-55.212-2, (R)-(+)-[2,3-Dihydro-5-methyl-3-(4-morpholinylmethyl)pyrrolo[1,2,3-de]-1,4-benzoxazin-6-yl]-1-naphthalenylmethanone mesylate]",cytotoxic / apoptotic effect on hepatic myofibroblasts,[2]; serum-deprived cells,cytotoxic
[Cl-].[Mn+3].[O-]c1ccccc1C=NCCN=Cc1ccccc1[O-] [EUK 8],effect on the antiproliferative effect of THC,[5],did not affect
same,effect on caspase-3 activation elicited by THC,caspase-3,blunted
"CS(=O)(=O)Nc1ccc([N+](=O)[O-])cc1OC1CCCCC1 [NS-398, N-(2-cyclohexyloxy-4-nitrophenyl)methane sulfonamide]",effect on cytotoxic effect / cell death triggered by THC,[2]; pretreatment before THC,did not affect
same,effect on the antiproliferative effect of THC,[5],reduced
same,effect on the antiproliferative effect of THC,[5]; listed as NS 398,blunted
same,effect on caspase-3 activation elicited by THC,caspase-3,did not affect
"CC(=O)N[C@@H](CS)C(=O)O [NAC, N-Acetyl Cysteine]",effect on the antiproliferative effect of THC,[5],did not affect
same,effect on caspase-3 activation elicited by THC,caspase-3,blunted
